Experimental data taken from PubChem BioAssay AID1259411 (Chemical Carcinogenesis Research Information System (CCRIS), 2018).
Active and inactive are the calls of the source. How the calls were made is not given here.

Tested on: rodent carcinogenicity bioassays, tumor incidence
Assay: CCRIS carcinogenicity studies
Settings: Dose: 0, Dose: 0
Method in brief: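 Archive of carcinogenicity, mutagenicity, tumor promotion and tumor inhibition results drawn from journals, NCI reports and other sources, expert-reviewed; covers 1985-2011 and is no longer updated.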

C[C@H](CCC(=O)O)[C@H]1CC[C@H]2[C@@H]3CC[C@@H]4C[C@H](O)CC[C@]4(C)[C@H]3CC[C@]12C
carcinogen call (Species: MOUSE, Strain/Sex: B6C3F1/FEMALE, Route: GAVAGE, 125, 250 MG/KG IN CORN OIL, 125, 250 MG/KG IN CORN OIL): inactive; negative
carcinogen call (Species: MOUSE, Strain/Sex: B6C3F1/MALE, Route: GAVAGE, 125, 250 MG/KG IN CORN OIL, 125, 250 MG/KG IN CORN OIL): inactive; negative
carcinogen call (Species: RAT, Strain/Sex: F344/FEMALE, Route: GAVAGE, 250, 500 MG/KG IN CORN OIL, 250, 500 MG/KG IN CORN OIL): inactive; negative
carcinogen call (Species: RAT, Strain/Sex: F344/MALE, Route: GAVAGE, 250, 500 MG/KG IN CORN OIL, 250, 500 MG/KG IN CORN OIL): inactive; negative

Nc1cc(Cl)cc(C(=O)O)c1Cl
carcinogen call (Species: MOUSE, Strain/Sex: B6C3F1/FEMALE, Route: ORAL, 10000, 20000 PPM IN DIET FOR 80 WK (STUDY DURATION: 91-92 WK), 10000, 20000 PPM IN DIET FOR 80 WK (STUDY DURATION: 91-92 WK), Tumor Site: Type of Lesion: LIVER: HEPATOCELLULAR CARCINOMA): active; positive
carcinogen call (Species: MOUSE, Strain/Sex: B6C3F1/MALE, Route: ORAL, 10000, 20000 PPM IN DIET FOR 80 WK (STUDY DURATION: 91-92 WK), 10000, 20000 PPM IN DIET FOR 80 WK (STUDY DURATION: 91-92 WK), Tumor Site: Type of Lesion: LIVER: HEPATOCELLULAR CARCINOMA): equivocal
carcinogen call (Species: RAT, Strain/Sex: OSBORNE-MENDEL/FEMALE, Route: ORAL, 10000, 20000 PPM IN DIET FOR 80 WK (STUDY DURATION: 112-113 WK ), 10000, 20000 PPM IN DIET FOR 80 WK (STUDY DURATION: 112-113 WK )): inactive; negative
carcinogen call (Species: RAT, Strain/Sex: OSBORNE-MENDEL/MALE, Route: ORAL, 10000, 20000 PPM IN DIET FOR 80 WK (STUDY DURATION: 112-113 WK), 10000, 20000 PPM IN DIET FOR 80 WK (STUDY DURATION: 112-113 WK)): inactive; negative

O=[N+]([O-])c1ccc2ccc3c(O)ccc4ccc1c2c43
carcinogen call (Species: MOUSE, Strain/Sex: B6C3F1/FEMALE, Route: INTRAPERITONEAL, 7 NMOL (TOTAL DOSE), 1/7, 2/7 AND 4/7 OF THE TOTAL DOSE ADMINISTERED WITHIN 24 HR OF BIRTH AND AT 8 AND 15 D OF AGE): inactive; negative
carcinogen call (Species: MOUSE, Strain/Sex: B6C3F1/MALE, Route: INTRAPERITONEAL, 7 NMOL (TOTAL DOSE), 1/7, 2/7 AND 4/7 OF THE TOTAL DOSE ADMINISTERED WITHIN 24 HR OF BIRTH AND AT 8 AND 15 D OF AGE): inactive; negative

[P]#[Ga]
carcinogen call (Species: MOUSE, Strain/Sex: ICR/MALE, Route: INTRAPERITONEAL, 48, 480 MG/KG AS GALLIUM SUSPENDED IN OLIVE OIL ONCE (STUDY DURATION: 18 MO), 48, 480 MG/KG AS GALLIUM SUSPENDED IN OLIVE OIL ONCE (STUDY DURATION: 18 MO)): inactive; negative
carcinogen call (Species: MOUSE, Strain/Sex: ICR/MALE, Route: SUBCUTANEOUS, 48, 480 MG/KG AS GALLIUM SUSPENDED IN OLIVE OIL ONCE (STUDY DURATION: 18 MO), 48, 480 MG/KG AS GALLIUM SUSPENDED IN OLIVE OIL ONCE (STUDY DURATION: 18 MO)): inactive; negative

CN(C)CCN(Cc1ccccc1)c1ccccn1
carcinogen call (Species: RAT, Strain/Sex: SPRAGUE-DAWLEY/FEMALE, Route: ORAL, 500, 1000 PPM IN DRINKING WATER 5D/WK FOR LIFE (STUDY DURATION: 493-754 D), 500, 1000 PPM IN DRINKING WATER 5D/WK FOR LIFE (STUDY DURATION: 493-754 D)): inactive; negative
carcinogen call (Species: RAT, Strain/Sex: SPRAGUE-DAWLEY/MALE, Route: ORAL, 500, 1000 PPM IN DRINKING WATER 5D/WK FOR LIFE (STUDY DURATION: 529-600 D), 500, 1000 PPM IN DRINKING WATER 5D/WK FOR LIFE (STUDY DURATION: 529-600 D)): inactive; negative

O=P(OCCCl)(OCCCl)OCCCl
carcinogen call (Species: MOUSE, Strain/Sex: B6C3F1/FEMALE, Route: GAVAGE, 175, 350 MG/KG IN CORN OIL 5 D/WK FOR 103 (STUDY DURATION: 104 WK), 175, 350 MG/KG IN CORN OIL 5 D/WK FOR 103 (STUDY DURATION: 104 WK), Tumor Site: Type of Lesion: HARDERIAN GLAND: ADENOMA OR CARCINOMA): equivocal
carcinogen call (Species: MOUSE, Strain/Sex: B6C3F1/MALE, Route: GAVAGE, 175, 350 MG/KG IN CORN OIL 5 D/WK FOR 103 (STUDY DURATION: 104 WK), 175, 350 MG/KG IN CORN OIL 5 D/WK FOR 103 (STUDY DURATION: 104 WK), Tumor Site: Type of Lesion: KIDNEY (RENAL TUBULE): ADENOMA, CARCINOMA): equivocal
carcinogen call (Species: MOUSE, Strain/Sex: DDY/FEMALE, Route: ORAL, 0.012, 0.06, 0.3, 1.5% IN DIET FOR 18 MO (STUDY DURATION: 18 MO), 0.012, 0.06, 0.3, 1.5% IN DIET FOR 18 MO (STUDY DURATION: 18 MO), Tumor Site: Type of Lesion: HEMATOPOIETIC SYSTEM: LEUKEMIA, FORESTOMACH: PAPILLOMA, CARCINOMA): active; positive
carcinogen call (Species: MOUSE, Strain/Sex: DDY/MALE, Route: ORAL, 0.012, 0.06, 0.3, 1.5% IN DIET FOR 18 MO (STUDY DURATION: 18 MO), 0.012, 0.06, 0.3, 1.5% IN DIET FOR 18 MO (STUDY DURATION: 18 MO), Tumor Site: Type of Lesion: LIVER: HEPATOCELLULAR ADENOMA, HEPATOCELLULAR CARCINOMA, KIDNEY: RENAL CELL ADENOMA, RENAL CELL CARCINOMA): active; positive
carcinogen call (Species: MOUSE, Strain/Sex: SLC:DDY/FEMALE, Route: DERMAL, 5, 50% IN ETHANOL 2/WK FOR 79 WK (STUDY DURATION: 18 MO), 5, 50% IN ETHANOL 2/WK FOR 79 WK (STUDY DURATION: 18 MO)): inactive; negative
carcinogen call (Species: RAT, Strain/Sex: F344/FEMALE, Route: GAVAGE, 44, 88 MG/KG IN CORN OIL 5 D/WK FOR 103 (STUDY DURATION: 104 WK), 44, 88 MG/KG IN CORN OIL 5 D/WK FOR 103 (STUDY DURATION: 104 WK), Tumor Site: Type of Lesion: KIDNEY (RENAL TUBULE): ADENOMA): active; positive
carcinogen call (Species: RAT, Strain/Sex: F344/MALE, Route: GAVAGE, 44, 88 MG/KG IN CORN OIL 5 D/WK FOR 103 (STUDY DURATION: 104 WK), 44, 88 MG/KG IN CORN OIL 5 D/WK FOR 103 (STUDY DURATION: 104 WK), Tumor Site: Type of Lesion: KIDNEY (RENAL TUBULE): ADENOMA OR CARCINOMA, HEMATOPOIETIC SYSTEM: LEUKEMIA (MONONUCLEAR)): active; positive

CCCCCCCCCCCCN=C(N)N
carcinogen call (Species: Mouse, Strain/Sex: Crl:CD-1(ICR)BR/Female (70/Group), Route: Oral, 200, 750, 1500 ppm in diet for 78 wk, study duration 78 wk. Test sample purity, 98%., 200, 750, 1500 ppm in diet for 78 wk, study duration 78 wk. Test sample purity, 98%., Tumor Site: Type of Lesion: Liver: Hepatocellular adenoma and carcinoma combined (high dose only)): active; positive, (neither tumor type, alone, was statistically significant.)
carcinogen call (Species: Mouse, Strain/Sex: Crl:CD-1(ICR)BR/Male (70/Group), Route: Oral, 200, 750, 1500 ppm in diet for 78 wk, study duration 78 wk. Test sample purity, 98%., 200, 750, 1500 ppm in diet for 78 wk, study duration 78 wk. Test sample purity, 98%.): inactive; negative
carcinogen call (Species: Rat, Strain/Sex: Sprague-Dawley/Female (60/Group), Route: Oral, 13.2, 26.5, 53.5 mg/kg/day in diet on wks 1-101, study duration 2 yrs. Test sample purity, 98.6%., 13.2, 26.5, 53.5 mg/kg/day in diet on wks 1-101, study duration 2 yrs. Test sample purity, 98.6%.): inactive; negative
carcinogen call (Species: Rat, Strain/Sex: Sprague-Dawley/Male (60/Group), Route: Oral, 10.2, 20.3, 41.9 mg/kg/day in diet on wks 1-101, study duration 2 yrs. Test sample purity, 98.6%, 10.2, 20.3, 41.9 mg/kg/day in diet on wks 1-101, study duration 2 yrs. Test sample purity, 98.6%): inactive; negative
